Measurements as given in patent publication US10717968B2, “Polymerases for nucleotide analogue incorporation” (Pacific Biosciences of California, Inc., priority 2005, dated 2020).

Assays:
Assay type in all cases: biochemical
A633dC4P = assay: Screening: rate with A633dC4P and dA, dG, dTTP; details: for Rate High: 25 μM A633dC4P with 20 μM dA; for Ratio (Low/High): (rate at 5 μM A633dC4P)/(rate at 25 μM A633dC4P), each with 20 μM dA, 1 mM MnCl2, higher ratio = lower Km
[1] = system: Alexa488-O-dA4P, FAM-Alexa532-O-dG4P, FAM-Alexa594-O-dT4P, Alexa633-O-dC4P; assay: Screening: rate with set of four nucleotide analogues; details: four analogues at 10 μM each, 1 mM MnCl2
dTTP, dATP, dGTP = assay: Assay with three native nucleotides (dGTP, dTTP and dATP); details: three native nucleotides at 20 μM; circular template, no G residues
Experimental: (§1) The Φ29 DNA polymerase (parental enzyme or mutant) was preincubated with DNA template (72 nucleotide circular DNA including mostly repetitive sequence AGTC) with annealed DNA primer. The preincubation mix includes three native nucleotides (dTTP, dATP and dGTP) and a terminal labeled nucleotide analogue (A488dC4P or A568dC4P) at 10 μM concentration. After a short preincubation, the reaction was started with MnCl2. The reaction was stopped with EDTA, and the products were separated using agarose gel electrophoresis and stained with SYBR Gold (Invitrogen). The average length of the DNA generated with DNA polymerase was determined and used to estimate the polymerization rate. See, e.g., Table 2 Columns G and H.
The Φ29 DNA polymerase (parental enzyme or mutant) was preincubated with DNA template (circular DNA including mostly repetitive sequence CAT, no G residues) with annealed DNA primer; the preincubation mix includes three native nucleotides (dTTP, dATP and dGTP). All subsequent steps were basically as described above in the section entitled “Assay with a single analogue at low concentration (10 μM) and three native nucleotides.” See, e.g., Table 2 Column B.

A488dC4P [2] = assay: Nucleotide analogue concentration dependence of the polymerization rate, A488dC4P; details: circular AGTC template; dTTP, dATP, dGTP 20 μM each
Experimental: (§2) The most promising polymerase mutants are characterized by determination of the polymerization rate and Km for A488dC4P and A568dC4P and a subset of natural nucleotides (dATP, dGTP and dTTP), using a circular template (AGTC). Velocity is measured at several different concentrations of the analogs, A488dC4P (a representative good substrate) and A568dC4P (a representative less preferred substrate).
(§3) The Φ29 DNA polymerase (parental enzyme or mutant) was preincubated with a DNA template (72 nucleotide circular DNA including mostly repetitive sequence AGTC) with annealed DNA primer. The preincubation mix includes also three native nucleotides (dTTP, dATP and dGTP 20 μM each) and various concentrations of the terminally labeled analogue (A488dC4P or A568dC4P). All subsequent steps were basically as described above in the section entitled “Assay with a single analogue at low concentration (10 μM) and three native nucleotides.” An average length of the DNA products generated with DNA polymerase at an individual analogue concentration was determined, and the results were fitted with the equation k=kel*[S]*(Kd+[S])^−1 where k is the observed polymerization rate, kel is the polymerization rate at saturating substrate concentration (kel measures incorporation of multiple residues), and [S] is substrate concentration. See, e.g., Table 2 Columns C, D, E, and F.

A568dC4P [3] = assay: Nucleotide analogue concentration dependence of the polymerization rate, A568dC4P; details: circular AGTC template; dTTP, dATP, dGTP 20 μM each
Experimental: as §2, §3

A488dC4P [4] = assay: Assay with a single analogue at low concentration (10 μM) and three native nucleotides, A488dC4P; details: single analogue at 10 μM and three native nucleotides
Experimental: as §1

A568dC4P [5] = assay: Assay with a single analogue at low concentration (10 μM) and three native nucleotides, A568dC4P; details: single analogue at 10 μM and three native nucleotides
Experimental: as §1

[6] = system: A488dA4P, A633dC4P, A546dG4P, A594dT4P; assay: Assay with four terminally labeled nucleotide analogs; details: four terminally labeled analogs all at 10 μM
Experimental: Polymerization rate (bases/min) with four analogues at 10 μM (A488dA4P, A633dC4P, A546dG4P and A594dT4P) and circular template (AGTC, a 72mer circular template largely consisting of a repeating AGTC motif) is determined.
The procedure is basically as described above in the section entitled “Assay with a single analogue at low concentration (10 μM) and three native nucleotides,” with the exception that in this assay all nucleotides are terminally labeled (A488dA4P, A633dC4P, A546dG4P, A594dT4P all at 10 μM). See, e.g., Table 2 Column I.

[7] = system: DNA template (72 nucleotide circular DNA) with annealed DNA primer; assay: Processivity assay; details: dNTP, MnCl2, heparin trap, 20 min; 1.0 minus Poff
Excerpt: The processivity (dissociation/kb) of the polymerase is estimated in a primer extension reaction performed in the presence of “Trap” (unlabeled competitor DNA or heparin). The processivity assay is designed to select mutants that retain the capability to synthesize a long DNA product in a continuous polymerization run (without polymerization reinitiation) with natural nucleotides. Mutants with a significant decrease in processivity are not selected for the next step.
The Φ29 DNA polymerase (parental enzyme or mutant) was preincubated with DNA template (72 nucleotide circular DNA including mostly repetitive sequence AGTC) with annealed DNA primer. After a short preincubation, the reaction was started with a starting mix including MnCl2, dNTP and heparin. Including the heparin in the reaction prevents polymerization from reinitiating after the polymerase dissociates from the template/primer, so that all generated DNA products are a result of continuous polymerization runs. After 20 min incubation, the reaction was stopped with EDTA and the products were separated using agarose gel electrophoresis and stained with SYBR Gold (Invitrogen). The DNA products were analyzed basically as described in Bibillo A, Eickbush T H. J Biol Chem. 2002 Sep. 20; 277(38):34836-45, Epub 2002 Jul. 5. The results were fitted with single exponential equation A*exp(−Poff*kb) where A is amplitude, Poff is the probability of premature polymerase dissociation, and kb is DNA length (1000 nucleotides). The probability of chain elongation (processivity) can be readily calculated by subtracting the Poff value from 1.0. See, e.g., Table 2 Column J.

[8] = system: natural (native) nucleotides; assay: Initial characterization: specific activity with natural (native) nucleotides
Experimental: The recombinant polymerase is initially evaluated on the quality of the protein preparation and basic catalytic activity. The polymerase's activity is analyzed with natural (native) nucleotides, and its specific activity (units/mg) is determined. Only catalytically competent mutants are selected for the next steps.

Alexa633-O-dC4P = assay: Km and Vmax versus analogue Alexa633-O-dC4P; details: Alexa633-O-dC4P (A633dC4P)
Experimental: Km and Vmax were determined for exemplary recombinant Phi29 polymerases and various nucleotide analogues.

| Substance | Rate High (A633dC4P) | Ratio (Low/High) (A633dC4P) | Hz Rate [1] [Hz] | dTTP, dATP, dGTP (no G fork) V at 20 μM (dTTP, dATP, dGTP) | A488dC4P, kel (A488dC4P [2]) [bp/min] | Km (A488dC4P [2]) [µM] | A568dC4P, kel (A568dC4P [3]) | Km (A568dC4P [3]) [µM] | A488dC4P, V at 10 μM (A488dC4P [4]) | A568dC4P, V at 10 μM (A568dC4P [5]) | A488dA4P, A633dC4P, A546dG4P, A594dT4P, V at 10 μM [6] | Processivity [7] [kb^−1] | Specific Activity [8] | Km (Alexa633-O-dC4P) [µM] |
| --- | --- | --- | --- | --- | --- | --- | --- | --- | --- | --- | --- | --- | --- | --- |
| D12A: GST-His tagged Phi29 polymerase with exonuclease-reducing D12A mutation, no background mutation [reference compound] | 55.3 | 0.888 | 1.2 | – | – | – | – | – | – | – | – | – | – | – |
| E375A: His-tagged Phi29 polymerase with E375A and background N62D mutation | 465.9 | 0.383 | 5.8 | – | – | – | – | – | – | – | – | – | – | – |
| E375Q: His-tagged Phi29 polymerase with E375Q and background N62D mutation | 531.6 | 0.356 | 6.3 | – | – | – | – | – | – | – | – | – | – | – |
| GST-N62D: GST-His-S tagged Phi 29 DNA polymerase with exonuclease-reducing N62D mutation (SEQ ID NO:2); parental enzyme [reference compound] | 349.3 | 0.355 | 2.8 | 780 | 1200 | 20 | 1660 | 74 | 346 | 236 | 65 | 0.9799 | – | – |
| His-E486A-N62D: His-tagged Phi 29 polymerase with E486A and N62D mutations (SEQ ID NOs:9, 30) | 152.5 | 0.441 | 1.0 | 1690 | – | – | – | – | 303 | 118 | 15 | 0.9875 | 4,133,000 units/mg | – |
| His-E486D-N62D: His-tagged Phi 29 polymerase with E486D and N62D mutations (SEQ ID NOs:10, 31) | 142.0 | 0.467 | 0.9 | – | – | – | – | – | 220 | 134 | 15 | 0.9885 | 11,634,000 units/mg | – |
| His-K135A-N62D: His-tagged Phi 29 polymerase with K135A and N62D mutations (SEQ ID NOs:3, 24) | 272.0 | 0.412 | 1.6 | 840 | 880 | 24 | – | – | 292 | 154 | 43 | 0.9801 | 12,454,000 units/mg | – |
| His-K512A-N62D: His-tagged Phi 29 polymerase with K512A and N62D mutations (SEQ ID NOs:11, 32) | 347.7 | 0.335 | 1.4 | – | – | – | – | – | 359 | 196 | 34 | 0.9821 | 16,073,000 units/mg | – |
| His-N62D: His-tagged N62D Phi 29 DNA polymerase; parental enzyme [reference compound] | 373.2 | 0.362 | 2.7 | 750 | 1020 | 21 | – | – | 391 | 237 | 68 | 0.9754 | – | – |
| His-NipTuck_1-N62D: His-tagged N62D Phi 29 polymerase with deletion of residues 505-525 (SEQ ID NOs:12, 33) | 192.4 | 0.508 | 1.3 | 660 | 520 | 24 | – | – | 153 | 116 | 24 | 0.9585 | 12,400,000 units/mg | – |
| L384R: His-tagged Phi29 polymerase with L384R and N62D mutations (SEQ ID NOs:8, 29) | 79.6 | 0.768 | −0 | – | – | – | – | – | – | – | – | – | – | – |
| N62D: E375K: Phi 29 polymerase with E375K and N62D mutations (SEQ ID NOs:6, 27) | 516.1 | 0.425 | 6.2 | – | – | – | – | – | – | – | – | – | – | 12 |
| T15I N62D: His-tagged Phi29 polymerase with T15I and background N62D mutation (Table 5 r22) | 105.9 | 0.726 | 0.0 | – | – | – | – | – | – | – | – | – | – | – |
| T15I: His-tagged Phi29 polymerase with T15I mutation only, no background mutation (Table 5 r13) | 416.5 | 0.355 | 3.0 | – | – | – | – | – | – | – | – | – | – | – |
